± gives the standard deviation of the averaged measurements.
Experiments:
Assay in all cases: LOEC (log10 uM (lowest observed effect concentration))
[1] = compound: CC(C)(C)C(=O)CC(=O)C(F)(F)C(F)(F)C(F)(F)F [(Heptafluorobutanoyl)pivaloylmethane]
Description: (§1)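 BioMAP Diversity Plus panel in human primary cell co-cultures, 4 concentrations in duplicate blinded samples. Responses are log10 fold change versus DMSO control, processed with tcpl v2.1.0. A hit is called when responses at any concentration exceed the cutoff (the larger of 3*bmad or log10(1.2)); the lowest observed effect concentration (modl_ga, log10 uM) is reported for hits.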

[2] = compound: O=C(O)C(F)(F)C(F)(F)C(F)(F)C(F)(F)C(F)(F)C(F)(F)C(F)(F)C(F)(F)Cl [9-Chloro-perfluorononanoic acid]
Description: as §1

[3] = compound: O=P(O)(O)CCC(F)(F)C(F)(F)C(F)(F)C(F)(F)C(F)(F)C(F)(F)C(F)(F)C(F)(F)F [((Perfluorooctyl)ethyl)phosphonic acid]
Description: as §1

Perfluorooctanamide = compound: NC(=O)C(F)(F)C(F)(F)C(F)(F)C(F)(F)C(F)(F)C(F)(F)C(F)(F)F [Perfluorooctanamide]
Description: as §1

Perfluorooctanamidine = compound: N=C(N)C(F)(F)C(F)(F)C(F)(F)C(F)(F)C(F)(F)C(F)(F)C(F)(F)F [Perfluorooctanamidine]
Description: as §1

[4] = compound: O=S(=O)(O)C(F)(F)C(F)(F)C(F)(F)C(F)(F)C(F)(F)C(F)(F)C(F)(F)C(F)(F)F [Potassium perfluorooctanesulfonate]
Description: as §1

[5] = compound: O=C(O)C(F)(F)C(F)(F)C(F)(F)C(F)(F)C(F)(F)C(F)(F)C(F)(F)C(F)(F)C(F)(F)C(F)(F)C(F)(F)C(F)(F)F [Perfluorotridecanoic acid]
Description: as §1

[6] = compound: FC(F)(F)C(F)(F)C(F)(F)C(F)(F)C(F)(F)C(F)(F)C(F)(F)CCI [1-Iodo-1H,1H,2H,2H-perfluorononane]
Description: as §1

[7] = compound: C=CC(=O)OCCC(F)(F)C(F)(F)C(F)(F)C(F)(F)F [2-(Perfluorobutyl)ethyl acrylate]
Description: as §1

Azathioprine = compound: Cn1cnc([N+](=O)[O-])c1Sc1ncnc2[nH]cnc12 [Azathioprine]
Description: as §1

[8] = compound: O=S(=O)(O)C(F)(F)C(F)(F)C(F)(F)C(F)(F)F [Perfluorobutanesulfonic acid]
Description: as §1

[9] = compound: O=C(O)C(F)(F)C(F)(F)C(F)(F)C(F)(F)C(F)(F)C(F)(F)C(F)(F)C(F)(F)C(F)(F)C(F)(F)C(F)(F)C(F)(F)C(F)(F)F [Perfluorotetradecanoic acid]
Description: as §1

[10] = compound: O=C(O)C(F)(F)OC(F)(F)C(F)(F)OC(F)(F)C(F)(F)C(F)(F)C(F)(F)F [Perfluoro-3,6-dioxadecanoic acid]
Description: as §1

[11] = compound: CNS(=O)(=O)C(F)(F)C(F)(F)C(F)(F)C(F)(F)C(F)(F)C(F)(F)C(F)(F)C(F)(F)F [N-Methylperfluorooctanesulfonamide]
Description: as §1

[12] = compound: O=S(=O)(O)C(F)(F)C(F)(F)C(F)(F)C(F)(F)C(F)(F)C(F)(F)C(F)(F)C(F)(F)F [Perfluorooctanesulfonic acid]
Description: as §1

[13] = compound: O=C(O)CCC(F)(F)C(F)(F)C(F)(F)C(F)(F)C(F)(F)F [2H,2H,3H,3H-Perfluorooctanoic acid]
Description: as §1

3C Thrombomodulin up
LOEC (log10 uM) [1]: 1.78 | LOEC (log10 uM) [2]: 1.78

LPS PGE2 up
LOEC (log10 uM) [1]: 1.78 | LOEC (log10 uM) [3]: 1.78

KF3CT MMP9 down
LOEC (log10 uM) [2]: 1.3 | LOEC (log10 uM) (Perfluorooctanamide): 1.78

hDFCGF Proliferation down
LOEC (log10 uM) (Perfluorooctanamidine): 1.78 | LOEC (log10 uM) [2]: 1.78 | LOEC (log10 uM) [4]: 1.78 | LOEC (log10 uM) [3]: 1.78 | LOEC (log10 uM) [5]: 0.477 | LOEC (log10 uM) [6]: 0.301 | LOEC (log10 uM) [7]: 1.54 ± 0.34 | LOEC (log10 uM) (Azathioprine): 1.48

IMphg IL8 up
LOEC (log10 uM) [8]: 1.78

3C Proliferation down
LOEC (log10 uM) [1]: 1.78 | LOEC (log10 uM) [9]: -0.199 ± 0.71 | LOEC (log10 uM) (Perfluorooctanamidine): 1.78 | LOEC (log10 uM) [2]: 1.78 | LOEC (log10 uM) [3]: 0.801 ± 0.71 | LOEC (log10 uM) [10]: 1.04 ± 1 | LOEC (log10 uM) [11]: 1.54 ± 0.34 | LOEC (log10 uM) [5]: 1.22 ± 0.37 | LOEC (log10 uM) [7]: 1.78 | LOEC (log10 uM) (Azathioprine): 1.48

IMphg IL10 down
LOEC (log10 uM) [12]: 1.78 | LOEC (log10 uM) [2]: 1.78 | LOEC (log10 uM) [4]: 1.78 | LOEC (log10 uM) [3]: 1.78 | LOEC (log10 uM) [10]: 1.78 | LOEC (log10 uM) [13]: 1.78 | LOEC (log10 uM) (Azathioprine): 1.48
